Reference: patent US12421206B2, “Aryl-n-aryl derivatives for treating a RNA virus infection” (ABIVAX, priority 2018, dated 2025)

These molecules were tested on RSV A2 (assay: RSV inhibition (cytopathic effect inhibition) using Viral ToxGlo assay in HEp-2 cells). Conditions: human respiratory syncytial virus, RSV A2, MOI 0.5, HEp-2 cells, 72 h p.i.
Assay type: cell-based
Experimental: Protocol for Screening Antiviral Compounds for RSV Inhibition and Cytotoxicity Using Viral ToxGlo Assay
HEp-2 cells were maintained in Eagle's minimum essential medium (EMEM) with Earle's BSS adjusted to contain 2 mM L-glutamine, 10% fetal bovine serum, 100 U/ml penicillin and 100 μg/ml streptomycin. For the purposes of the screening assay they were grown to 90% confluency, trypsinized and recovered. The trypsin was neutralised with cell culture media and cells were centrifuged at 150×g for 5 minutes before discarding the supernatant and resuspending cell pellet in assay media (EMEM with Earle's BSS adjusted to contain 2 mM L-glutamine, 2% fetal bovine serum and 100 U/ml penicillin and 100 μg/ml streptomycin). The cells were seeded into white clear-bottomed cell culture plates at a density of 1.5×10^4 cells/well in 50 μl and 4×10^3 cells/well in 25 μl for 96 well plates and 384 well plates respectively. For the media/background control column assay media only was added. Cell plates were placed in a humid chamber and incubated overnight at 37° C./5% CO2. After overnight incubation cells were checked for confluency and healthy appearance.
Test articles were made up at 10× test concentration in a maximum DMSO concentration of 10% (final assay concentration maximal 1% DMSO) and added to the cell plates in volumes of 10 μl for 96 well plates and 5 μl for 384 well plates. For cell control and virus control wells the test article solvent only was added. Virus or assay media for cytotoxicity test wells and media/cell control wells was added immediately after test articles at an MOI of 0.5, 40 or 20 μl for 96 and 384 well plates respectively. Virus suspension was prepared by thawing RSV A2 frozen stocks and diluting to the required concentration of plaque forming units in assay media on ice.
Cell plates were further incubated inside a humid chamber for 72 h p.i at 37° C./5% CO2. After the incubation period cells were observed under the microscope to check for characteristic cytopathic effect in virus control wells and healthy cells in the cell control wells. After plates were adjusted to room temperature 20/40 μl Viral ToxGlo (Promega) was added to each well of the 384/96 well cell plates. Plates were incubated at room temperature, protected from light on a plate rocker for 20 minutes before measuring the luminescence on a spectrophotometer (Biotek Synergy HTX).
RSV inhibition was calculated as percentage of cytopathic effect inhibition relative to the virus control and cytotoxicity as percentage of cell survival relative to cell control wells. This allowed EC50 values to be calculated for each test article where a virus inhibition or cytotoxic dose response was identified.

First: O=C(NCCC1CCCC1)c1cccc(Nc2ccc(OCc3ccccn3)cc2C2CC2)c1 [Compound 60, N-(2-cyclopentylethyl)-3-((2-cyclopropyl-4-(pyridin-2-ylmethoxy)phenyl)amino)benzamide]
Second: O=C(NCCC1CCCCC1)c1cccc(Nc2ccc(OCc3ccccn3)cc2C2CC2)c1 [Compound 76, N-(2-(cyclohexyl)ethyl)-3-((2-cyclopropyl-4-(pyridin-2-ylmethoxy)phenyl)amino)benzamide]
The EC50 of the first is 4.8-fold higher: 67 nM for the first, 14 nM for the second. The second is the more potent here.

Cc1cc(OCc2ccccn2)ccc1Nc1cccc(C(=O)NCCCC(C)C)c1 [Compound 72, 3-((2-methyl-4-(pyridin-2-ylmethoxy)phenyl)amino)-N-(4-methylpentyl)benzamide] and CCCC(C)NC(=O)c1cccc(Nc2ccc(OCc3ccccn3)cc2C)c1 (stereo not shown) [Compound 77, N-(1-methylbutyl)-3-((2-methyl-4-(pyridin-2-ylmethoxy)phenyl)amino)benzamide] are within 1.5-fold of each other in EC50: 158 nM for the first, 124 nM for the second.

Compared with CCc1cc(OCc2ccccn2)ccc1Nc1cccc(C(=O)NCCC2CCCCC2)c1 [Compound 75, N-(2-(cyclohexyl)ethyl)-3-((2-ethyl-4-(pyridin-2-ylmethoxy)phenyl)amino)benzamide], O=C(NCCC1CCCCC1)Nc1cccc(Nc2ccc(OCc3ccccn3)cc2C2CC2)c1 [Compound 96, 1-(2-cyclohexylethyl)-3-[3-({2-cyclopropyl-4-[(pyridin-2-yl)methoxy]phenyl}amino)phenyl]urea] is 2.5-fold lower in EC50: 25 nM for the first, 10 nM for the second.

Going from CCCC(C)NC(=O)c1cccc(Nc2ccc(OCc3ccccn3)cc2CC)c1 (stereo not shown) [Compound 78, N-(1-methylbutyl)-3-((2-ethyl-4-(pyridin-2-ylmethoxy)phenyl)amino)benzamide] to NC(=O)c1cccc(Nc2ccc(OCc3ccccn3)cc2C2CC2)c1 [Compound 84, 3-((2-cyclopropyl-4-(pyridin-2-ylmethoxy)phenyl)amino)benzamide], the EC50 rises from 58 nM to 637 nM (11-fold).

Going from O=S(=O)(NCCC1CCCCC1)c1cccc(Nc2ccc(OCc3ccccn3)cc2C2CC2)c1 [Compound 79, N-(2-(cyclohexyl)ethyl)-3-((2-cyclopropyl-4-(pyridin-2-ylmethoxy)phenyl)amino)benzenesulfonamide] to O=C(CCC1CCCCC1)Nc1cccc(Nc2ccc(OCc3ccccn3)cc2C2CC2)c1 [Compound 80, (3-(cyclohexyl)propanamide), N-[3-([2-cyclopropyl-4-(pyridin-2-ylmethoxy)phenyl]amino)phenyl]-], the EC50 falls from 33 nM to 21 nM (1.6-fold).

Compared with c1ccc(COc2ccc(Nc3cccc(OCCCC4CCCCC4)c3)c(C3CC3)c2)nc1 [Compound 83, 3-(3-cyclohexylpropoxy)-N-(2-cyclopropyl-4-(pyridin-2-ylmethoxy)phenyl)aniline], CC(C)CCCOc1cccc(Nc2ccc(OCc3ccccn3)cc2C2CC2)c1 [Compound 106, 2-cyclopropyl-N-{3-[(4-methylpentyl)oxy]phenyl}-4-[(pyridin-2-yl)methoxy]aniline] is 3.7-fold higher in EC50: 9 nM for the first, 33 nM for the second.

Going from O=C(NCCC1CCCCC1)c1cccc(Nc2ccc(OCc3cccnc3)cc2C2CC2)c1 [Compound 85, N-(2-cyclohexylethyl)-3-((2-cyclopropyl-4-(pyridin-3-ylmethoxy)phenyl)amino)benzamide] to O=C(NCCC1CCCC1)c1cccc(Nc2ccc(OCc3ccncc3)cc2C2CC2)c1 [Compound 89, N-(2-cyclopentylethyl)-3-((2-cyclopropyl-4-(pyridin-4-ylmethoxy)phenyl)amino)benzamide], the EC50 rises from 8 nM to 140 nM (18-fold). The first is the more potent here.

Going from O=C(NCCC1CCCCC1)c1cccc(Nc2ccc(OCc3ccccn3)cc2C2CC2)n1 [Compound 86, N-(2-cyclohexylethyl)-6-((2-cyclopropyl-4-(pyridin-2-ylmethoxy)phenyl)amino)picolinamide] to O=C(NCCC1CCCCC1)c1ccnc(Nc2ccc(OCc3ccccn3)cc2C2CC2)c1 [Compound 90, N-(2-cyclohexylethyl)-2-((2-cyclopropyl-4-(pyridin-2-ylmethoxy)phenyl)amino)isonicotinamide], the EC50 falls from 567 nM to 92 nM (6.2-fold). The second is the more potent here.

First: O=C(NCCC1CCCCC1)c1cncc(Nc2ccc(OCc3ccccn3)cc2C2CC2)c1 [Compound 88, N-(2-cyclohexylethyl)-5-((2-cyclopropyl-4-(pyridin-2-ylmethoxy)phenyl)amino)nicotinamide]
Second: c1ccc(COc2ccc(Nc3cccc(-n4cc(CC5CCCCC5)nn4)c3)c(C3CC3)c2)nc1 [Compound 100, N-{3-[4-(cyclohexylmethyl)-1H-1,2,3-triazol-1-yl]phenyl}-2-cyclopropyl-4-[(pyridin-2-yl)methoxy]aniline]
The EC50 of the first is 29-fold higher: 461 nM for the first, 16 nM for the second.

Compared with CC(C)(C)c1cc(OCc2ccccc2)ccc1Nc1cccc(NC(=O)CCC2CCCCC2)c1 [Compound 91, N-(3-{[4-(benzyloxy)-2-tert-butylphenyl]amino}phenyl)-3-cyclohexylpropanamide], CSc1cc(OCc2ccccc2)ccc1Nc1cccc(NC(=O)CCC2CCCCC2)c1 [Compound 94, N-(3-{[4-(benzyloxy)-2-(methylsulfanyl)phenyl]amino}phenyl)-3-cyclohexylpropanamide] is 3.5-fold higher in EC50: 2 nM for the first, 7 nM for the second.

O=C(CCC1CCCCC1)Nc1cccc(Nc2ccc(OCc3ccccc3)cc2C2=CCCC2)c1 [Compound 92, N-(3-{[4-(benzyloxy)-2-(cyclopent-1-en-1-yl)phenyl]amino}phenyl)-3-cyclohexylpropanamide] and O=C(CCC1CCCCC1)Nc1cccc(Nc2ccc(OCc3ccccc3)cc2C2CCCC2)c1 [Compound 93, N-(3-{[4-(benzyloxy)-2-cyclopentylphenyl]amino}phenyl)-3-cyclohexylpropanamide] are the same in EC50: 4 nM for the first, 4 nM for the second.

c1ccc(COc2ccc(Nc3cccc(NCCCC4CCCCC4)c3)c(C3CC3)c2)cc1 [Compound 95, N1-[4-(benzyloxy)-2-cyclopropylphenyl]-N3-(3-cyclohexylpropyl)benzene-1,3-diamine] and OC(CCCC1CCCCC1)c1cccc(Nc2ccc(OCc3ccccc3)cc2C2CC2)c1 (stereo not shown) [Compound 97, 1-(3-{[4-(benzyloxy)-2-cyclopropylphenyl]amino}phenyl)-4-cyclohexylbutan-1-ol] are within 1.5-fold of each other in EC50: 8 nM for the first, 10 nM for the second.

Going from O=C(CCC1CCCCC1)Nc1cccc(Nc2ccc(OCc3ccc(F)cc3)cc2C(F)(F)F)c1 [Compound 99, 3-cyclohexyl-N-[3-({4-[(4-fluorophenyl)methoxy]-2-(trifluoromethyl)phenyl}amino)phenyl]propanamide] to O=C(NCCC1CCCC1)c1cccc(Nc2ccc(OCc3ccccc3)cc2C(F)(F)F)c1 [Compound 104, 3-{[4-(benzyloxy)-2-(trifluoromethyl)phenyl]amino}-N-(2-cyclopentylethyl)benzamide], the EC50 rises from 13 nM to 29 nM (2.2-fold).

CC(C)(C)c1cc(OCc2ccccc2)ccc1Nc1ccccc1C(=O)NCCC1CCCCC1 [Compound 101, 2-{[4-(benzyloxy)-2-tert-butylphenyl]amino}-N-(2-cyclohexylethyl)benzamide] and O=C(NCCCC1CCCCC1)c1ccccc1Nc1ccc(OCc2ccccc2)cc1C1CC1 [Compound 103, 2-{[4-(benzyloxy)-2-cyclopropylphenyl]amino}-N-(3-cyclohexylpropyl)benzamide] are within 1.5-fold of each other in EC50: 21 nM for the first, 24 nM for the second.

First: Cc1c(NC(=O)C2(C#N)CC2)cccc1Nc1ccc(OCc2ccccn2)cc1C1CC1 [Compound 102, 1-cyano-N-[3-({2-cyclopropyl-4-[(pyridin-2-yl)methoxy]phenyl}amino)-2-methylphenyl]cyclopropane-1-carboxamide]
Second: Cc1c(NC(=O)C2(C(N)=O)CC2)cccc1Nc1ccc(OCc2ccccn2)cc1C1CC1 [Compound 108, N′1-[3-({2-cyclopropyl-4-[(pyridin-2-yl)methoxy]phenyl}amino)-2-methylphenyl]cyclopropane-1,1-dicarboxamide]
The EC50 of the first is 1.9-fold lower: 22 nM for the first, 41 nM for the second.

Going from Cc1c(Nc2ccc(OCc3ccccc3)cc2C2CC2)cccc1OCCCC1CCCCC1 [Compound 105, 4-(benzyloxy)-N-[3-(3-cyclohexylpropoxy)-2-methylphenyl]-2-cyclopropylaniline] to O=C(NCC1CCCCC1)c1ccccc1Nc1ccc(OCc2ccccc2)cc1C1CC1 [Compound 110, 2-{[4-(benzyloxy)-2-cyclopropylphenyl]amino}-N-(cyclohexylmethyl)benzamide], the EC50 rises from 31 nM to 59 nM (1.9-fold). The first is the more potent here.

CS(=O)(=O)c1cc(OCc2ccccc2)ccc1Nc1cccc(NC(=O)CCC2CCCCC2)c1 [Compound 107, N-(3-{[4-(benzyloxy)-2-methanesulfonylphenyl]amino}phenyl)-3-cyclohexylpropanamide] and Cc1c(Nc2ccc(OCc3ccccn3)cc2C2CC2)cccc1OP(=O)(O)O [Compound 109, [3-({2-cyclopropyl-4-[(pyridin-2-yl)methoxy]phenyl}amino)-2-methylphenoxy]phosphonic acid] are within 1.5-fold of each other in EC50: 36 nM for the first, 48 nM for the second.
